How the values were obtained:
PDGFR = PDGFR kinase HTRF assay; format: biochemical; conditions: 2.3 μM ATP
Experimental: (§1) To determine inhibition of KDR, FGFR, EGFR, and PDGFR activity, kinase assays were conducted using an HTRF (Homogeneous Time Resolved Fluorescence) assay. This assay is described in A. J. Kolb et. al., Drug Discovery Today, 1998, 3(7), p 333.
(§2) Kinase activity assays were performed in 96-well polypropylene plates (Falcon) with a total volume of 90 μL in each well. Each well contained 1 μM KDR substrate (Biotin-EEEEYFELVAKKKK), 1 nM activated KDR, and a test compound with one of 8 assay concentrations ranging from 100 μM to […] (1:5 serial dilution). The kinase activity assay was done in the presence of 100 mM HEPES, pH 7.4, 1 mM DTT, 0.1 mM Na2VO4, 25 mM MgCl2, 50 mM NaCl (from KDR stock solution), 1% DMSO (from compound), 0.3 mM ATP (at Km concentration) and 0.02% BSA. The reaction was incubated at 37° C. for 30 minutes. To stop the KDR reaction, 72 μL of reaction mixture was transferred into a STOP plate containing 18 μL of revelation buffer (20 mM EDTA, 50 mM HEPES, pH 7.4, 0.02% BSA, 10 nM Eu-labelled anti-pY antibody (final conc. 2 nM), and 100 nM streptavidin (final conc. 20 nM)). After mixing, 35 μL of solution was transferred into duplicate wells of a 384-well black plate (Costar), and read at 615/665 nm on a Wallac Victor 5 reader.
(§3) The PDGFR kinase activity assay was performed with 1 μM substrate (Biotin-EEEEYFELV), 1.0 nM PDGFR, test compounds, 100 mM HEPES, pH 7.4, 1 mM DTT, 5 mM MgCl2, 2 mM MnCl2, 1% DMSO, 2.3 μM ATP (Km for PDGFR), 0.1 mM Na2VO4, and 0.02% BSA. The rest of the assay was performed in the same manner as the KDR assay.
(§4) Compound IC50 values were determined from duplicate sets of data, and calculated by using Excel and fitting data to equation Y=[(a−b)/{1+(X/c)^d]+b, where a and b are enzyme activity in the presence of no test inhibitor compound and an infinite amount of inhibitor test compound, respectively, c is the IC50 and d is the hill constant of the compound response. The IC50 value is the concentration of test compound that reduces by 50% the enzyme activity under the test conditions described.

EGFR = EGFR (Homo sapiens, UniProt P00533); assay: EGFR kinase HTRF assay; format: biochemical; conditions: 0.5 μM ATP
Experimental: as §1, §2
as §3, with “EGFR” for “PDGFR”, “1.5” for “1.0”, “EGFR,” for “PDGFR,”, “0.5” for “2.3”, “EGFR),” for “PDGFR),”
as §4

FGFR = target: T1, FGFR; assay: FGFR kinase HTRF assay; format: biochemical; conditions: 10 μM ATP
T1 construct: fused on or other part: GST tag
Experimental: as §1, §2
FGFR, EGFR, and PDGFR activity assays were carried out as described above for the KDR activity assay with the following differences. GST-tagged FGFR enzyme was activated at room temperature for 1 hour in the following activation buffer: 100 mM HEPES, pH 7.4, 50 mM NaCl, 20 mM MgCl2, and 4 mM ATP. The kinase activity assay was performed with 1 μM substrate (Biotin-EEEEYFELV), 1.5 nM activated FGFR, and test compound in the presence of 100 mM HEPES, 1 mM DTT, 0.4 mM MgCl2, 0.4 mM MnCl2, 50 mM NaCl, 1% DMSO, 10 μM ATP (Km=8.5 μM for FGFR), 0.1 mM Na2VO4, and 0.02% BSA, in a total volume of 90 μL. The rest of the assay was performed in the same manner as KDR assay.
as §4

KDR = target: T2, KDR (Homo sapiens, UniProt P35968); assay: KDR kinase HTRF assay; format: biochemical; conditions: 0.3 mM ATP
T2 construct: EEE tag
Experimental: as §1
Prior to kinase reaction, recombinant EEE-tagged KDR was activated in the presence of activation buffer (50 mM HEPES, pH 7.4, 1 mM DTT, 10% glycerol, 150 mM NaCl, 0.1 mM EDTA, 26 mM MgCl2, and 4 mM ATP). The enzyme was incubated at 4° C. for 1 hour.
as §2, §4

[1] = test system: Human umbilical vein endothelial cells; assay: FGF-stimulated HUVEC proliferation assay (BrdU); format: cell-based; conditions: FGF 5 ng per mL, BrdU labeling, read-out: HUVEC/bFGFR IC50
Experimental: (§5) The antiproliferative activity of test-compounds of this invention in cell-based assays was evaluated by BrdU assay using the BrdU kit (Roche Biochemicals 1-647-229). Human umbilical vein endothelial cells (Clonetics CC-2519) were cultured in EGM-2 (Clonetics CC-3162) medium and seeded at 10000 cells per well in a volume of 200 μL of EGM-2 (Clonetics CC-3162) media in a 96-well flat bottom plates (Costar 3595) overnight. After 24 hours of growth at 37° C. with 5% CO2, the incubation media was removed slowly by aspiration and the content of each well was washed with 300 μL pre-warmed EBM-2 (Clonetics CC-3156) containing 50 μg per mL of gentamycin and 50 ng per mL of amphotercin-B (Clonetics CC-4083). […]
(§6) After 24 hour exposure to the test compounds, the cells were labeled with BrdU (Roche Biochemicals 1-647-229), by adding 20 μL per well of BrdU labeling reagent that has been diluted (1:100) in serum starvation medium. […] The plates were read at 450 nm with reference wavelength of 650 nm. The percent inhibition for each test compound was calculated by subtracting the absorbency of the blank (no cells) wells from all wells, then subtracting the division of the average absorbency of each test duplicate by the average of the controls from 1. […] The IC50 is determined from the linear regression of a plot of the logarithm of the concentration versus percent inhibition.

[2] = test system: Human umbilical vein endothelial cells; assay: VEGF-stimulated HUVEC proliferation assay (BrdU); format: cell-based; conditions: VEGF 20 ng per mL, BrdU labeling, read-out: HUVEC/VEFG IC50
Experimental: as §5, §6

Measured: IC50

Sequence of EGFR (P00533 25-1210, species assumed): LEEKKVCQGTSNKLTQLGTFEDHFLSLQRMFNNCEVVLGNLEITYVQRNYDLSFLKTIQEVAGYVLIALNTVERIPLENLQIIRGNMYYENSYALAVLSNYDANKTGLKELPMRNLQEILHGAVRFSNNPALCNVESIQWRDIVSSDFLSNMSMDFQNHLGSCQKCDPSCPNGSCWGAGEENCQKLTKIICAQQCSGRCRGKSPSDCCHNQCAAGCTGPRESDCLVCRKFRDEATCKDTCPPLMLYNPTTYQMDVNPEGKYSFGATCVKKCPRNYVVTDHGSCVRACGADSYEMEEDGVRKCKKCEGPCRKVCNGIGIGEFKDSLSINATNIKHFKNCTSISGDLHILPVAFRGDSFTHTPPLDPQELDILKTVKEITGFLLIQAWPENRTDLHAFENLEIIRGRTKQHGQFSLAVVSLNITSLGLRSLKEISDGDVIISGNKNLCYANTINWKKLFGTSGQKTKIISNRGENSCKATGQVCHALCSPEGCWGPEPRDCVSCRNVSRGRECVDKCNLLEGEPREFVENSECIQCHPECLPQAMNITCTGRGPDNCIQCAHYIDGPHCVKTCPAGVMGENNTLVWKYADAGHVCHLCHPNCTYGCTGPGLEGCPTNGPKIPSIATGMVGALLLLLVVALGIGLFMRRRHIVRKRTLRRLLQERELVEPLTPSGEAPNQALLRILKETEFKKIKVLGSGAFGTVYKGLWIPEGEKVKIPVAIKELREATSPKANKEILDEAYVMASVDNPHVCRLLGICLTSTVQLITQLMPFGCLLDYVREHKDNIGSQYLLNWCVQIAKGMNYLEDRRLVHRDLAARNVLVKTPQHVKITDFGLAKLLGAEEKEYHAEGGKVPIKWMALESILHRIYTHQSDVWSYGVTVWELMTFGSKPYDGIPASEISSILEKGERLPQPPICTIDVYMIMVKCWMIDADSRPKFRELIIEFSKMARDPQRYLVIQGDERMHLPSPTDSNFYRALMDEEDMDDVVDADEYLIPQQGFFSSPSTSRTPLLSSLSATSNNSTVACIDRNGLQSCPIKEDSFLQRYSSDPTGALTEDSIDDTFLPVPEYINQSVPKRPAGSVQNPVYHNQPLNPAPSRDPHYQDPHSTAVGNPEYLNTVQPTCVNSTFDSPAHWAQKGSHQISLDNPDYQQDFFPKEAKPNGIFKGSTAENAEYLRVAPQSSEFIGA
T2 sequence (P35968 20-1356): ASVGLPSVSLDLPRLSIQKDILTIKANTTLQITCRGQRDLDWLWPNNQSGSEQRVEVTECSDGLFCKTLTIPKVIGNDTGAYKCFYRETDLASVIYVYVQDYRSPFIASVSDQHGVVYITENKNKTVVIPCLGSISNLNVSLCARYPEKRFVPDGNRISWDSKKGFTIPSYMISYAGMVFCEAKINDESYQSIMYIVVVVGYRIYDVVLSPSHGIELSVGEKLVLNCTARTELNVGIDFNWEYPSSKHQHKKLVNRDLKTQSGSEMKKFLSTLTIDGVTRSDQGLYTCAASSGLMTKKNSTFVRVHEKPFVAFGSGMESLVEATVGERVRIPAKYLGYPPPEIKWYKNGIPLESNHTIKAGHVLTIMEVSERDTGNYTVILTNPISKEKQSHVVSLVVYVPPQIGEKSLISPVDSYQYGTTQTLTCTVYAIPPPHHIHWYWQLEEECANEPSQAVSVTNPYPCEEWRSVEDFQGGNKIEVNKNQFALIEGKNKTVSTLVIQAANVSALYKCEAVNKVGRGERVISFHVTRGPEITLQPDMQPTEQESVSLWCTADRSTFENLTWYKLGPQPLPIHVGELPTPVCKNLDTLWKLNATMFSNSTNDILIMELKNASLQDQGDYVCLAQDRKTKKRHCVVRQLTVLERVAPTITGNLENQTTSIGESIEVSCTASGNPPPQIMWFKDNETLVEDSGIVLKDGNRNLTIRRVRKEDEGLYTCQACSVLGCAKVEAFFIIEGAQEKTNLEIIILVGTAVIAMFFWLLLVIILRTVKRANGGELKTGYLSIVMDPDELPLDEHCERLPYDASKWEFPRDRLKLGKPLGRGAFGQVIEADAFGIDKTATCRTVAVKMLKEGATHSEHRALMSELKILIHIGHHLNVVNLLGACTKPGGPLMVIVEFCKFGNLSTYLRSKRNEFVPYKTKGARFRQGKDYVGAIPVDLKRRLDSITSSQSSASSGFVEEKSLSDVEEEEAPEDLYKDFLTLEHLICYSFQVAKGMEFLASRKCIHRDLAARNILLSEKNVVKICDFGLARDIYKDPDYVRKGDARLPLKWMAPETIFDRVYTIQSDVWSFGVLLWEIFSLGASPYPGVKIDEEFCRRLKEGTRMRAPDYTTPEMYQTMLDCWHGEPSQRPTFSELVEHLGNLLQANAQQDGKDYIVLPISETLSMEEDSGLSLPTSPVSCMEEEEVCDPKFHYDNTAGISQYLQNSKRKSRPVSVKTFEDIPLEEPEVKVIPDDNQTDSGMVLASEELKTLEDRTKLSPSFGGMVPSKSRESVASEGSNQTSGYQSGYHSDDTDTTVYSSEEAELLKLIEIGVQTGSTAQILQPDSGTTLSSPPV

COc1cc(OC)cc(C2Cc3cnc(Nc4ccccc4)nc3N(c3ccccc3)C2=O)c1 (stereo not drawn) [Example 3d, 6-(3,5-Dimethoxy-phenyl)-8-phenyl-2-phenylamino-5,8-dihydro-6H-pyrido[2,3-d]pyrimidin-7-one]
< 10 µM: all assays above

Source: patent US7098332B2, “5,8-Dihydro-6H-pyrido[2,3-d]pyrimidin-7-ones” (Hoffmann-La Roche Inc., priority 2002, dated 2006)
